Laboratory results as given in patent publication EP4810489A1, “SUBSTITUTED 2-(PYRROLIDIN-3-YL)ACETIC ACID DERIVATIVE, PREPARATION METHOD THEREFOR AND USE THEREOF” (Innovstone Therapeutics Limited, priority 2023, dated 2025).

Key:
Lp(a) assembly = target: T1, Lp(a) assembly (Homo sapiens, UniProt P08519); experiment: ELISA assay on screening Lp(a) assembly inhibition; assay type: cell-based; details: HepG2 cells overexpressing ApoA protein, 24h incubation, ELISA of culture supernatant
T1 construct: expressed in transfected cells; host or cells: HepG2 cells overexpressing apo(a)
T1 sequence (P08519 20-2040): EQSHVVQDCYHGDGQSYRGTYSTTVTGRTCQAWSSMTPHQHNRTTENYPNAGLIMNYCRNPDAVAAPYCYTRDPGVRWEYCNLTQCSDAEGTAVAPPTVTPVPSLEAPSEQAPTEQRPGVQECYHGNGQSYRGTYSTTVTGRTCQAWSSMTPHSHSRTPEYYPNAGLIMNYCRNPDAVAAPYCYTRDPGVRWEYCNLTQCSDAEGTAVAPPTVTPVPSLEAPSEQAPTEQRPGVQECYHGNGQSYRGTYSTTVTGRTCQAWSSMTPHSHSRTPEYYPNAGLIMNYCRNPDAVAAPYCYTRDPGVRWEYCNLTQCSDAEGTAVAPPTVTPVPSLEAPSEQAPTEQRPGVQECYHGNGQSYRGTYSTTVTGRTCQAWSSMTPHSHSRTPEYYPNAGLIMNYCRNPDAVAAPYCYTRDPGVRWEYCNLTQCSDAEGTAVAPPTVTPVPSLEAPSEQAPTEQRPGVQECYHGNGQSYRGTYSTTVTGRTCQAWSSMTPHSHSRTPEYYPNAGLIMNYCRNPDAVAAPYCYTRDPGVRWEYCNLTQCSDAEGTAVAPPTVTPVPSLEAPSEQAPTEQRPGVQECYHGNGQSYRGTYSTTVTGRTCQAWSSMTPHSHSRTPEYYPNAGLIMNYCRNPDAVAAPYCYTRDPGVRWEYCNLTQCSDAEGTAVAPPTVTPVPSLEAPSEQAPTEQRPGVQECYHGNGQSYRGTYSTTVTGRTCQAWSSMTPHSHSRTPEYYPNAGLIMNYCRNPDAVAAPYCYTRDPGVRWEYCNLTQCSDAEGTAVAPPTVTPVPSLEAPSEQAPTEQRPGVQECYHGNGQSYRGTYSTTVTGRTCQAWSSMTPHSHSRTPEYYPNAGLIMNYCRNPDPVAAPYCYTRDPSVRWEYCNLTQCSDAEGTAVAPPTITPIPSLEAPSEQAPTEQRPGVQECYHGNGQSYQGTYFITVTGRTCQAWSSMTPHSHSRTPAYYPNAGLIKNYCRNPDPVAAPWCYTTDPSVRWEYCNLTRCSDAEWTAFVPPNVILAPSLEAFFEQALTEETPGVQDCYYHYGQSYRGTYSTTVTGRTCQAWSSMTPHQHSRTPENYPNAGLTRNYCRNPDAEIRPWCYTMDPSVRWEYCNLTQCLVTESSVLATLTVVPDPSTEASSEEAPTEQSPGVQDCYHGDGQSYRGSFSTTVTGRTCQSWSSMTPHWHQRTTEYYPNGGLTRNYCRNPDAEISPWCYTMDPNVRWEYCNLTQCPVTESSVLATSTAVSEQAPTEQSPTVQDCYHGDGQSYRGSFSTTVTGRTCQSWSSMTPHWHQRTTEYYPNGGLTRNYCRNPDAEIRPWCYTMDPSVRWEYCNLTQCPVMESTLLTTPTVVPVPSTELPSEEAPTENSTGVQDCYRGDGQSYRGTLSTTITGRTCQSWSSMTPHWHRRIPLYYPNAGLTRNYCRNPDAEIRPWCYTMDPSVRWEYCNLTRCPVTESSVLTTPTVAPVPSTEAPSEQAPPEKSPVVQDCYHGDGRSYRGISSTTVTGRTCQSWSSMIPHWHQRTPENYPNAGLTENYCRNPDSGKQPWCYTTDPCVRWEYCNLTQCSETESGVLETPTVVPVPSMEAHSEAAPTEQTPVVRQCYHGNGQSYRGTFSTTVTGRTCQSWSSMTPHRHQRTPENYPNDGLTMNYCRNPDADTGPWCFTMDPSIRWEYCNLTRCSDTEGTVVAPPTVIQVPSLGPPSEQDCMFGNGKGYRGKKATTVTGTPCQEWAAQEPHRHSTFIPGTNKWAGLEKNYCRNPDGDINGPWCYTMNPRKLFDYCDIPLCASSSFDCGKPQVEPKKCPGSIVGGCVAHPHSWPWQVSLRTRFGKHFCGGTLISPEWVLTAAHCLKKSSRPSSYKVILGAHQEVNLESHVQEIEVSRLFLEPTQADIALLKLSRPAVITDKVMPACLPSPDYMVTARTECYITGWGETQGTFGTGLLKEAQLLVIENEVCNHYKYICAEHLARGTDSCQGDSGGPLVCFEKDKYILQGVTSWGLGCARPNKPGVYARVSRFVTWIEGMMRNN
Description: Test Example 1 and Methods of ELISA Assay on Screening Lp(a) Assembly Inhibition
1. Reagents, Consumables, Instruments
2. Cell Culture Media Preparation 2.1. Complete Cell Culture Media
3. Test Procedure • 3.1 Cell Culture and Passage • 1) Preheated the culture media, DPBS, and pancreatin in a 37°C water bath in advance. • 2) Digested cells with pancreatin, transferred the cell suspension to a 15 mL centrifuge tube, and centrifuged at 1000 rpm for 5 min. • 3) Resuspended the cells with culture media and transferred the cell suspension to a new T75 cell culture flask. • 4) Cultured at 37°C in a 5% CO2 incubator. • 3.2. Cell Seeding and Drug Administration • 1) Seeded HepG2 cells overexpressing of ApoA protein into a 96-well plate at 100 µL per well and incubated overnight for attachment. • 2) Replaced with fresh culture media the next day, then added diluted compounds, and cultured the cell plate in a 5% CO2, 37°C incubator for 24h. • 3.3. Preparation of Cell Culture Supernatant • 1) Added 10 µL of 1.5 M EACA to each well. • 2) Centrifuged at 1000 rpm for 1 min, and transferred 100 µL of cell culture supernatant to a pre-coated ELISA plate. • 3.4. […]

Lp(a) = experiment: Humanized mouse Lp(a) inhibition test; assay type: in vivo, humanized Lp(a) transgenic mouse; details: oral, 5 mg/kg once daily for 3 consecutive days, blood 8 h after last dose
Description: Test Example 3 and Humanized Mouse Lp(a) Inhibition Test
The in vivo pharmacodynamics of the compounds in reducing Lp(a) was evaluated in a humanized Lp(a) transgenic mouse model.Lp(a) mice were obtained by crossing mice expressing humanized apoB-100 with mice expressing humanized apo(a) containing 16 Kringle repeats.Female mice aged 8-9 weeks were selected for the test.Housing conditions: standard light cycle (12 h light/12 h dark), temperature 20-25°C, humidity 40-70%, free access to water and normal diet.
One day before the test, mice were divided into vehicle control group and test article group (n=5/group) according to body weight and baseline plasma Lp(a) concentration. […] Eight hours after the last dose, 10 µL of blood was collected from the tail vein and transferred to a 1.5 mL centrifuge tube containing 90 µL of normal saline, mixed well, and left to stand on ice for 30min.The above samples were centrifuged at 4°C, 3000 rpm for 10 min, and the supernatant was collected and placed on ice.The Lp(a) concentration in the supernatant was measured by double-antibody sandwich ELISA using an anti-apo(a) capture antibody and an HRP-conjugated anti-ApoB detection antibody, with TMB for color development. The reaction was stopped with 1 N sulfuric acid, and the OD value was read at 450 nm on a Tecan microplate reader.Inhibition rate was calculated for each dosing group. […]

[1] = Safety assessment test in rats; assay type: in vivo, SD rats; details: oral gavage, 300 mg/kg and 1000 mg/kg once daily for 14 consecutive days
Description: Test Example 5 and Safety Assessment Test in Rats
The safety of the compounds of the present invention was evaluated by oral gavage administration to SD rats as the test animals.
Test method: 50 SD rats (half males and half females) were randomly divided into vehicle control group and test article group according to their body weight. The vehicle saline or the compound of the present invention or LY3473329 (300 mg/kg, 1000 mg/kg) was administered orally once daily for 14 consecutive days.

Compound | IC50 (Lp(a) assembly) | Lp(a) Inhibition Rate (Lp(a)) | changes in clinical observation, body weight and weight gain, food consumption, hematology, blood biochemistry, urine, organ weight and coefficients, and histopathology [1]
O=C(O)[C@@H](Cc1cccc(CN(Cc2cccc(C[C@H](C(=O)O)[C@H]3CCNC3)c2)Cc2cccc(C[C@H](C(=O)O)[C@H]3CCNC3)c2)c1)[C@H]1CCNC1 [LY3473329] | 1.05 nM | 56% | no changes
O=C(O)[C@@H](Cc1ccc2c(CN(Cc3n[nH]c4cc(C[C@H](C(=O)O)[C@H]5CCNC5)ccc34)Cc3n[nH]c4cc(C[C@H](C(=O)O)[C@H]5CCNC5)ccc34)n[nH]c2c1)[C@H]1CCNC1 [Compound 136] | 2.16 nM |  | 
